From PMC12980303, “Development of a novel risk score reflecting the relative harm potential of synthetic cannabinoids based on prevalence estimates, well‐documented intoxication cases and basic pharmacological data” (Addiction (Abingdon, England), 2025)
Like-named read-outs stand apart in the source and are kept apart here. Marks after values point to notes of the source that are not given here.

How the values were obtained:
hCB1 receptor [1] = target: T1, hCB1 receptor (Homo sapiens, UniProt P21554); experiment: competitive [3H]CP‐55940 radioligand binding assay (hCB1 receptor affinity); settings: Ki [nM] (95% CI), [3H]CP‐55940 competition, hCB1 membrane preparations (HEK293‐EBNA), Cheng–Prusoff; 95% CI in brackets
Experimental: (§1) Receptor assays were performed on three different days and each concentration was tested in duplicate.
From the IC50, the respective Ki values were calculated using the Cheng–Prusoff equation [39].

[2] = clinical symptoms, PSS and TSS assessment of individual intoxication cases; assay type: in vivo, human; design: key to PSS: 0: no; 1: mild; 2: moderate; 3: severe; 4: fatal intoxication
Experimental: Forty‐eight cases were included in the present study.
The PSS was determined based on the described symptoms.
For part G2, the severity of the intoxication caused by the respective SCRA x was assessed on the basis of reported symptoms and follow‐up information using the PSS [20]. The PSS classifies the intoxication severity into five levels: (0) no, (1) mild, (2) moderate, (3) severe, and (4) fatal intoxication. […] For this purpose, the mean value of the PSS of all intoxications with the respective SCRA x was calculated ( G2x) .
For part G3, the involvement of the SCRA in the respective intoxications was assessed. This was evaluated on the basis of the TSS [21]. Elliott et al. developed the TSS to assess and classify the contribution of NPS in fatalities. In the present study, the TSS was determined to weigh the involvement of the investigated SCRA in the intoxication and the contribution of the SCRA to the observed symptoms. To determine the TSS value, factors such as the determined concentration of the SCRA, the presence of other recreational drugs or medicinal drugs, the general health of the patient and the consumption circumstances need to be considered. […] In cases with more than one drug detected, a TSS of 3 was only assigned where other compounds were present at concentrations below the range in which relevant effects are to be expected.

hCB1 receptor [3] = target: T1, hCB1 receptor; experiment: functional [35S]GTPγS hCB1 activation assay; assay type: biochemical
Experimental: as §1

hCB1 receptor [4] = target: T1, hCB1 receptor; settings: ref Wouters et al. [29], cited from earlier work
[5] = occurrence of SCRAs in intoxication samples of the prospective study; design: species or system human; settings: 2013 to 2021
Description: For this study, the 10 SCRAs (AB‐[…], ADB‐[…], AB‐FUBINACA, FUB‐AMB, Cumyl‐PEGACLONE, MDMB‐4en‐PINACA, MDMB‐CHMICA, 5F‐MDMB‐PICA, 5F‐ADB and 5F‐PB‐22) which were most frequently detected in intoxications in a prospective observational study during the time period of 2013 to 2021 were selected (see Table 1). Additionally, JWH‐210, a model compound representative of the early SCRAs, along with two substances prevalent in screenings during years 2019/2020 (5F‐Cumyl‐PEGACLONE and 4F‐MDMB‐BICA), were included in this study (see Tables S2–S7). […] JWH‐018 was also included as a reference compound because of its historical use in this capacity. Including both reference compounds facilitates direct comparison with previously published data, thereby enhancing the relevance and interpretability of the results obtained in the present study. Information on the origin of the test and reference compounds and all chemicals used in this study can be found in Table S1.
(§2) The data on intoxication cases used for the development of this risk score were obtained from a prospective study. This study included patients who were treated in an emergency department room following the consumption of an NPS. Clinical symptoms and follow‐up information were documented using a structured questionnaire completed by the attending physicians. The methodology has been previously published. Residual serum (obtained from venous blood) and urine samples, accompanied by the completed questionnaires, were sent to the Poisons Information Center Freiburg for further analysis. The toxicological analyses of serum and urine samples were conducted at the Institute of Forensic Medicine Freiburg. No data was available on previous consumption patterns or potential development of tolerance after continued misuse. The study was conducted in accordance with the Declaration of Helsinki and approved by the regional ethics committee of the University of Freiburg (no. 235/13_130683). The intoxication cases included in this study are those in which SCRA use was confirmed by liquid chromatography tandem mass spectrometry (LC–MS/MS).

[6] = LC–MS/MS analysis of serum and urine samples of intoxication cases; assay type: in vivo, human; settings: for Concentration in serum: patient serum; for Finding in urine: patient urine
Experimental: as §2
Serum/blood and urine analyses were conducted at the Institute of Forensic Medicine Freiburg using previously published LC–MS/MS methods, that were modified by adding further analytes present in ‘legal‐high’ products (‘herbal blends’, ‘C‐liquids’ or ‘research chemicals’), and covered approximately 100 different SCRAs. Detailed information can be found in the Supporting Information.
Urine samples were analysed according to previously published and validated method by Franz et al.^2. For sample preparation 0.5 mL of phosphate buffer (pH 6) and 30 μL of β-glucuronidase were added to 0.5 mL of urine. Incubation was for 60 min at 45°C. This was followed by protein precipitation using 1.5 mL acetonitrile containing the internal standard (c = 2 ng/mL) and 0.56 mL 10 M ammonium formate solution, followed by shaking and centrifugation. 1 mL of the organic phase was transferred into an autosampler vial and evaporated to dryness under N2. The samples were reconstituted in 200 μL mobile phase.
Urine sample analysis was performed on a Dionex UltiMate® 3000RS UHPLC (Thermo Scientific, Dreieich, Germany) coupled to an API 5000^TM triple quadrupole instrument with a TurboIonSpray® interface (Sciex, Darmstadt, Germany). Separation was performed on a Luna C18 100 Å (150 x 2 mm, 5 μm) column with the mobile phase consisting of 0.2% HCOOH and 2 mmol/L NH^4+HCOO^− in water (A) and acetonitrile (B).

T1 sequence (P21554 whole entry): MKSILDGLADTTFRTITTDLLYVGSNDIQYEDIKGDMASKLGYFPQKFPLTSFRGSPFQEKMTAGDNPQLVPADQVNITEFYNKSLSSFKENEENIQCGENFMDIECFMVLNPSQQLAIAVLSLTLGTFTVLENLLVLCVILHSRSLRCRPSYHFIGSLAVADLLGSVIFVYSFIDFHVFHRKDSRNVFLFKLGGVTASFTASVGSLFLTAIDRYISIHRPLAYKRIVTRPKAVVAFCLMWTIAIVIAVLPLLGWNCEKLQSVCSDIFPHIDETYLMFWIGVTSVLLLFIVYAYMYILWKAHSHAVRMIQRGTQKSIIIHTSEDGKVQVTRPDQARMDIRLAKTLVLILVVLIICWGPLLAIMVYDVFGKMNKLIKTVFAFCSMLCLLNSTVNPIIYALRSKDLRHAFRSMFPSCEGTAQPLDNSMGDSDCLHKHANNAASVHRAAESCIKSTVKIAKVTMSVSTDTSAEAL

Structure (SMILES): CC(C)C(NC(=O)c1nn(CC2CCCCC2)c2ccccc12)C(N)=O (centres unmarked)
- Ki (hCB1 receptor [1]): 0.145 nM
- PSS ([2]; intoxication case A): 3
- Recorded symptoms ([2]; intoxication case A, 3‐MMC also present): severe bradycardia (35 bpm/minutes)
- Recorded symptoms ([2]; intoxication case A, 3‐MMC also present, listed as AB-CHMINACA): bradycardia (35 bpm/min), seizure, hypokalaemia
- PSS ([2]; intoxication case B): 2
- Recorded symptoms ([2]; intoxication case B, four other SCRAs at very low concentrations): disorientation and miosis
- EC50 (hCB1 receptor [3]): 5.09 nM
- Emax (hCB1 receptor [3]; read-out: [35S]‐GTPγS assay Emax [%] (95% CI)): 124%
- EC50 (hCB1 receptor [4]; read-out: βarr2 assay EC50 [nM] (95% CI)): 3.45 nM
- βarr2 assay Emax [%] (95% CI) (hCB1 receptor [4]; relative to CP‐55940, originally normalised to JWH‐018, corrected with factor 0.3268): 1195 ^a (1097–1331) %
- No. of intoxications ([5]; 139 intoxication samples of the prospective study): 33
- Percentage in % ([5]; proportion of 139 intoxications in which the substance was detected): 24%
- Concentration in serum ([6]; intoxication case A (AB‐CHMINACA)): 9.5 ng/mL
- Finding in urine ([6]; intoxication case A): positive
- Concentration in serum ([6]; intoxication case B (AB‐CHMINACA)): 27 ng/mL
- Concentration in serum ([6]; intoxication case B (AB‐CHMINACA), listed as AB-CHMINACA): ca. 27 ng/mL
- Finding in urine ([6]; intoxication case B): positive
